Literature values, collected in patent publication US20070141100A1, “Drug-eluting biodegradable stent” (priority 2003, published 2007).
“Also recorded” adds a separate entry of the source.

Assays:
[1] = glutaraldehyde used to crosslink materials
mice = conditions: i.v.
3T3 fibroblasts = conditions: in vitro
[2] = system: Chinese hamster ovary (CHO-K1) cells; conditions: in vitro
neointimal proliferation = conditions: animal studies, compared with a control bare metal stent
[3] = system: renal transplant recipients; conditions: everolimus trough serum concentrations above 7.8 ng/ml

For `CC(=O)O[C@H]1C(=O)[C@@]2(C)[C@H]([C@H](OC(=O)c3ccccc3)[C@]3(O)C[C@H](OC(=O)[C@H](O)[C@@H](NC(=O)c4ccccc4)c4ccccc4)C(C)=C1C3(C)C)[C@]1(OC(C)=O)CO[C@@H]1C[C@@H]2O` [Taxol, paclitaxel], the solubility in water is given as “practically water insoluble”.

In the case of `CO[C@H]1C[C@@H]2CC[C@@H](C)[C@@](O)(O2)C(=O)C(=O)N2CCCC[C@H]2C(=O)O[C@H]([C@H](C)C[C@@H]2CC[C@@H](O)[C@H](OC)C2)CC(=O)[C@H](C)/C=C(\C)[C@@H](O)[C@@H](OC)C(=O)[C@H](C)C[C@H](C)/C=C/C=C/C=C/1C` [Sirolimus], the solubility in water is given as “non-water soluble”.

In the case of `O=CCCCC=O` [glutaraldehyde], the “cytotoxic at concentrations greater than” value (tissue culture) is given as 10-25 ppm, the “cytotoxic at concentrations as low as” value (tissue culture; in tissue culture) is given as 3 ppm and the “crosslinking concentration giving a persistent foreign-body reaction” value [1] is given as “above 0.05%”.

In the case of `COC(=O)C1=CO[C@@H](O)[C@@H]2C(CO)=CC[C@H]12` [genipin], the LD50 (mice) is listed as 382 mg/k, the “cytotoxicity compared with glutaraldehyde” value (3T3 fibroblasts) is listed as “substantially less cytotoxic than glutaraldehyde; also recorded: significantly less cytotoxic than glutaraldehyde” and the “clastogenic response (genotoxicity)” value [2] is listed as “does not cause clastogenic response”.

For `CO[C@H]1C[C@@H]2CC[C@@H](C)[C@@](O)(O2)C(=O)C(=O)N2CCCC[C@H]2C(=O)O[C@H]([C@H](C)C[C@@H]2CC[C@@H](OCCO)[C@H](OC)C2)CC(=O)[C@H](C)/C=C(\C)[C@@H](O)[C@@H](OC)C(=O)[C@H](C)C[C@H](C)/C=C/C=C/C=C/1C` [Everolimus], the “reduction of neointimal proliferation” value (neointimal proliferation) is given as 50%, the solubility in water is given as “poorly soluble in water” and the rate of thrombocytopenia [3] is given as 17%.
